Eleven compounds from ChEMBL document CHEMBL1130801, “PF1022A--a novel anthelmintic cyclooctadepsipeptide. Modification and exchange of the N-methyl leucine residues” (Bioorg Med Chem Lett, 1998) can be followed below.

A short description of series [1]: Partition coefficient in n-octanol/ water system at pH= 7.0. In kind it is physicochemical.
In series [2] the test system is Ovis aries. Kind of series: Anthelmintic activity against Haemonchus contortus nematode in sheep was determined as a function of 75 to >/= 90% egg reduction after p.o. administration. In kind it is functional.
Series [3] has as its system Ovis aries. As to the kind of experiment: Anthelmintic activity against Haemonchus contortus nematode in sheep was determined as a function of 50-75% egg reduction after p.o. administration. In kind it is functional.
In series [4] the test system is Ovis aries. Kind of series: Anthelmintic activity against Haemonchus contortus nematode in sheep was determined as a function of </= 50% egg reduction after i.v. administration. It counts as functional.
Series [5] deals with Ovis aries. As to the kind of experiment: Anthelmintic activity against Haemonchus contortus nematode in sheep was determined as a function of </=50% egg reduction after p.o. administration. It counts as functional.
Series [6] concerns Ovis aries. Kind of series: Anthelmintic activity against Haemonchus contortus nematode in sheep was determined as a function of >/= 90% egg reduction after i.v. administration. In kind it is functional.
Series [7] relates to Ovis aries. As to the kind of experiment: Anthelmintic activity against Haemonchus contortus nematode in sheep was determined as a function of 75-90% egg reduction after p.o. administration. It counts as functional.
Series [8] has as its system Ovis aries. As to the kind of experiment: Anthelmintic activity against Haemonchus contortus nematode in sheep was determined as a function of >/= 90% egg reduction after p.o. administration. It counts as functional.

As to `CCN1C(=O)[C@H](C)OC(=O)[C@H](CC(C)C)N(CC)C(=O)[C@@H](Cc2ccccc2)OC(=O)[C@H](CC(C)C)N(CC)C(=O)[C@@H](C)OC(=O)[C@H](CC(C)C)N(CC)C(=O)[C@@H](Cc2ccccc2)OC(=O)[C@@H]1CC(C)C`, the log distribution coefficient (logD) (in general, lipophilicity at a set pH, counting ionised and neutral species) in series [1] came out at 7.2. The Activity with Ovis aries [2] is 0.25.

`CCCN1C(=O)[C@H](C)OC(=O)[C@H](CC(C)C)N(CCC)C(=O)[C@@H](Cc2ccccc2)OC(=O)[C@H](CC(C)C)N(CCC)C(=O)[C@@H](C)OC(=O)[C@H](CC(C)C)N(CCC)C(=O)[C@@H](Cc2ccccc2)OC(=O)[C@@H]1CC(C)C` had a log distribution coefficient (logD) in series [1] of 8.4. This compound also came in with an Activity with Ovis aries [3] of 0.25.

For `C[C@@H]1OC(=O)[C@H](C)N(C)C(=O)[C@@H](Cc2ccccc2)OC(=O)[C@H](C)N(C)C(=O)[C@@H](C)OC(=O)[C@H](C)N(C)C(=O)[C@@H](Cc2ccccc2)OC(=O)[C@H](C)N(C)C1=O`, the logD in series [1] is 3.1. In the series with Ovis aries [4], the Activity worked out at 0.5.

The compound `CCC(C)[C@H]1C(=O)O[C@H](Cc2ccccc2)C(=O)N(C)[C@@H](C(C)CC)C(=O)O[C@H](C)C(=O)N(C)[C@@H](C(C)CC)C(=O)O[C@H](Cc2ccccc2)C(=O)N(C)[C@@H](C(C)CC)C(=O)O[C@@H](C)C(=O)N1C` (stereo partly specified) gave a logD in series [1] of 6.6. In addition, the Activity worked out at 5 with Ovis aries [5] and 1 in the series with Ovis aries [6].

Turning to `CC(C)[C@H]1C(=O)O[C@H](Cc2ccccc2)C(=O)N(C)[C@@H](C(C)C)C(=O)O[C@H](C)C(=O)N(C)[C@@H](C(C)C)C(=O)O[C@H](Cc2ccccc2)C(=O)N(C)[C@@H](C(C)C)C(=O)O[C@@H](C)C(=O)N1C`, the logD in series [1] amounted to 5.5. In addition, the results for the Activity in the series on Ovis aries [3] and with Ovis aries [6] were 0.25 and 1, respectively.

Consider `CC(C)C[C@H]1C(=O)O[C@H](Cc2ccccc2)C(=O)N(C)[C@@H](C)C(=O)O[C@@H](C)C(=O)N(C)[C@@H](C)C(=O)O[C@H](Cc2ccccc2)C(=O)N(C)[C@@H](CC(C)C)C(=O)O[C@H](C)C(=O)N1C`, for which the logD in series [1] came to 4.6. This compound displayed an Activity with Ovis aries [4] of 0.5.

Take `CC(C)C[C@H]1C(=O)O[C@H](Cc2ccccc2)C(=O)N(C(C)C)[C@@H](CC(C)C)C(=O)O[C@H](C)C(=O)N(C(C)C)[C@@H](CC(C)C)C(=O)O[C@H](Cc2ccccc2)C(=O)N(C(C)C)[C@@H](CC(C)C)C(=O)O[C@@H](C)C(=O)N1C(C)C`: the logD in series [1] was 8.6. Also, the Activity in the series on Ovis aries [7] is given as 1.

Take `C[C@@H]1OC(=O)[C@H](Cc2ccccc2)N(C)C(=O)[C@@H](Cc2ccccc2)OC(=O)[C@H](Cc2ccccc2)N(C)C(=O)[C@@H](C)OC(=O)[C@H](Cc2ccccc2)N(C)C(=O)[C@@H](Cc2ccccc2)OC(=O)[C@H](Cc2ccccc2)N(C)C1=O`: in series [1], the logD came out at 5.9. Also, the Activity in the series on Ovis aries [4] was determined as 5.

Take `CCC[C@H]1C(=O)O[C@H](Cc2ccccc2)C(=O)N(C)[C@@H](CC(C)C)C(=O)O[C@H](C)C(=O)N(C)[C@@H](CC(C)C)C(=O)O[C@H](Cc2ccccc2)C(=O)N(C)[C@@H](CCC)C(=O)O[C@@H](C)C(=O)N1C`: in series [1], the logD turned out to be 5.5. Besides, the Activity is reported as 0.1 in the series on Ovis aries [5] and 0.5 in the series on Ovis aries [6].

`CCC[C@H]1C(=O)O[C@H](Cc2ccccc2)C(=O)N(C)[C@@H](CCC)C(=O)O[C@H](C)C(=O)N(C)[C@@H](CCC)C(=O)O[C@H](Cc2ccccc2)C(=O)N(C)[C@@H](CCC)C(=O)O[C@@H](C)C(=O)N1C` registered a logD in series [1] of 5.1. In addition, the Activity in the series with Ovis aries [4] turned out to be 0.5.

Turning to `CC(C)C[C@H]1C(=O)O[C@H](Cc2ccccc2)C(=O)N(C)[C@@H](CC(C)C)C(=O)O[C@H](C)C(=O)N(C)[C@@H](CC(C)C)C(=O)O[C@H](Cc2ccccc2)C(=O)N(C)[C@@H](CC(C)C)C(=O)OC(C)C(=O)N1C` (single isomer, unassigned), in series [1], the logD came out at 5.9. Further, the Activity in the series with Ovis aries [6] and in the series on Ovis aries [8] was 0.1 each time.
